Laboratory results from patent publication US9023821B2, “Use of MicroRNA for treating diseases associated with a dysfunction of the cilia in multiciliated epithelial cells” (Centre National de la Recherche Scientifique, priority 2009, dated 2015).
{Chol} = cholesterol

Legend:
miR-449 = assay: Expression of miRNAs in HAEC cells treated with antagomir; type: cell-based, human
HAEC cells [1] = assay: Ciliogenesis of HAEC cells treated with antagomir during regeneration (tubulin-β4 positive cells); type: cell-based, human; conditions: number of ciliated HAEC cells at stage ALI-D21, n=6, P<0.001
Method: (a,b) the HEAC cells are treated several times with anti-miR-449 antagomirs or a control antagomir (20 nM) during their regeneration (generally 21 days). The percentage of ciliated cells was defined as the ratio of the number of cells positive to +tubulin-β4 relative to the number of nuclei (20 fields/filter and 3 filters/donor). […] The histogram indicates the percentage of ciliated cells per field for each experimental condition (n=6, ***, P<0.001, Student test).
Six independent cultures of HAEC cells were transfected with an oligonucleotide directed against the miR-449s and conjugated with a cholesterol molecule; ciliogenesis was evaluated during the regeneration time.
These tests use an antisense oligonucleotide of miR-449a (antagomir) bound at 3′ by a 2′-O-methyl bond to a molecule of cholesterol and with the sequence: 5′-ascscsagcuaacaauacacugcscsa-Chol-3′ (SEQ. ID. No. 207) (the phosphorothioate bonds are indicated by the subscript J (obtained according to Eurogentec (Seraing, Belgium).
The antagomir (100 μM) was preincubated in fetal calf serum (FCS) for 30 min RT. Then the antagomir-FCS mixture in a differentiation medium (20 μM of antagomir) is added on the apical face of the primary HAEC cells. After 2 h at 37° C., the mixture is withdrawn to restore the air-liquid interface. […]

HAEC cells [2] = assay: Ciliogenesis of HAEC cells under blocking of the Notch signalling pathway; type: cell-based, human; conditions: 10 μM
[3] = tested on: basal cells and pyramidal cells of the airway epithelium; assay: miRNA expression in sorted basal cells versus pyramidal cells (ciliated + secretory), HTS and Agilent chips; set-up: species or system human; conditions: for Modulation of expression of the miRNAs in pyramidal cells (323(−)) relative to basal cells 323(+): HTS and Agilent chips; for Intensity of the level of expression in log2 in pyramidal cells (323(−)): pyramidal cells (ciliated + secretory)
Procedure, shortened: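 Nasal polyp or concha epithelial cells from 3 donors were stained with CD151-PE and anti-tissue factor-FITC for 20 min at 4° C, with DAPI excluding damaged cells. CD151+/TF+ basal and CD151−/TF− ciliated/secretory cells were FACS-sorted; total RNA miRNA profiles came from Agilent chips or high-throughput sequencing.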

[4] = tested on: human airway epithelial cells (HAECs); assay: High-throughput sequencing (HTS) of miRNAs at four stages of differentiation of HAECs; conditions: for Modulation (ratio of the level of intensity of expression in log2 in two stages of differentiation) measured by high-throughput sequencing, D7 − D0 / Modulation (ratio of the level of intensity of expression in log2 in two stages of differentiation) measured by high-throughput sequencing, FC − D7 / Modulation (ratio of the level of intensity of expression in log2 in two stages of differentiation) measured by high-throughput sequencing, WD − D0 / Modulation (ratio of the level of intensity of expression in log2 in two stages of differentiation) measured by high-throughput sequencing, WD − FC / Level of intensity of expression in log2 measured by high-throughput sequencing, D0 / Level of intensity of expression in log2 measured by high-throughput sequencing, D7 / Level of intensity of expression in log2 measured by high-throughput sequencing, FC / Level of intensity of expression in log2 measured by high-throughput sequencing, WD: Table VI; for Level of intensity of expression in log2 At the differentiated stage (WD) measured in HTS: healthy human airway epithelial tissue; for Level of intensity of expression in log2 measured by high-throughput sequencing, D0: stage D0; for Level of intensity of expression in log2 measured by high-throughput sequencing, D7: stage D7; for Level of intensity of expression in log2 measured by high-throughput sequencing, FC: stage FC; for Level of intensity of expression in log2 At the differentiated stage (WD) measured in HTS / Level of intensity of expression in log2 measured by high-throughput sequencing, WD: stage WD
Procedure, shortened: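 Reads per 5p and 3p strand scaled to 10^6 sequences, then to percentage abundance; linear model plus empirical Bayes normalization. Retained miRNAs exceeded 1% of total in at least one condition, with |Log2 Ratio| below 0.5 and adjusted P-value below 0.05.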

[5] = tested on: human airway epithelial cells (HAECs); assay: Agilent miRNA chips, miRNA expression at four stages of differentiation of HAECs; conditions: for Modulation (ratio of the level of intensity of expression in log2 in two stages of differentiation) measured with the Agilent chips, D7 − D0 / Modulation (ratio of the level of intensity of expression in log2 in two stages of differentiation) measured with the Agilent chips, FC − D7 / Modulation (ratio of the level of intensity of expression in log2 in two stages of differentiation) measured with the Agilent chips, WD − D0 / Modulation (ratio of the level of intensity of expression in log2 in two stages of differentiation) measured with the Agilent chips, WD − FC / Level of intensity of expression in log2 measured with the Agilent chips, D0 / Level of intensity of expression in log2 measured with the Agilent chips, D7 / Level of intensity of expression in log2 measured with the Agilent chips, FC / Level of intensity of expression in log2 measured with the Agilent chips, WD: Table VI; for Modulation (ratio of the level of intensity of expression in log2 at two stages of differentiation), FC − D7 / Modulation (ratio of the level of intensity of expression in log2 at two stages of differentiation), WD − FC: Agilent miRNA chips, Table V; for Level of intensity of expression in log2 measured with the Agilent chips, D0: stage D0; for Level of intensity of expression in log2 measured with the Agilent chips, D7: stage D7; for Level of intensity of expression in log2 measured with the Agilent chips, FC: stage FC; for Level of intensity of expression in log2 measured with the Agilent chips, WD: stage WD
Procedure, shortened: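 Arrays probing 866 human and 89 human viral miRNAs were used in parallel with sequencing. The same patients' RNA was labelled and hybridized following the manufacturer's protocol.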

## anti-miR-449 antagomir: antisense oligonucleotide of miR-449a bound at 3′ to cholesterol, 5′-ascscsagcuaacaauacacugcscsa-Chol-3′ (SEQ. ID. No. 207) (antisense ACCAGCUAACAAUACACUGCCA; linkages s3 o16 s2 (s phosphorothioate, o phosphodiester), 3' {Chol}, sugars by position and methylation of C not given here; further chemistry not fully specified; listed as Homo sapiens)
miR-449; n=6
  expression of miR449a: suppresses
  expression of miR-21: no effect
  expression of miR-449b: suppresses
miR-449; stage ALI-D21
  expression of miR-449: reduction of the same order
HAEC cells [1]
  mean value of inhibition of ciliogenesis: 2.3±0.3

## C[C@H](NC(=O)Cc1cc(F)cc(F)c1)C(=O)N[C@H](C(=O)OC(C)(C)C)c1ccccc1 [DCT]
HAEC cells [2]
  ciliogenesis during regeneration of the HAEC cells: potentiates ciliogenesis significantly

## hsa-miR-106b: human miRNA, SEQ ID No. 2 (UAAAGUGCUGACAGUGCAGAU; expressed or natural sequence; listed as Homo sapiens)
[3]
  Modulation of expression of the miRNAs in pyramidal cells (323(−)) relative to basal cells 323(+): −2.05
  Intensity of the level of expression in log2 in basal cells (323(+)): 7.22 log2
  Intensity of the level of expression in log2 in pyramidal cells (323(−)): 5.16 log2
[4]
  Modulation (ratio of the level of intensity of expression in log2 in two stages of differentiation) measured by high-throughput sequencing, D7 − D0: 1.33 log2
  Modulation (ratio of the level of intensity of expression in log2 in two stages of differentiation) measured by high-throughput sequencing, FC − D7: −0.28 log2
  Modulation (ratio of the level of intensity of expression in log2 in two stages of differentiation) measured by high-throughput sequencing, WD − D0: 0.96 log2
  Modulation (ratio of the level of intensity of expression in log2 in two stages of differentiation) measured by high-throughput sequencing, WD − FC: −0.09 log2
  Level of intensity of expression in log2 At the differentiated stage (WD) measured in HTS: 5.39 log2
  Level of intensity of expression in log2 measured by high-throughput sequencing, D0: 4.43 log2
  Level of intensity of expression in log2 measured by high-throughput sequencing, D7: 5.76 log2
  Level of intensity of expression in log2 measured by high-throughput sequencing, FC: 5.48 log2
  Level of intensity of expression in log2 measured by high-throughput sequencing, WD: 5.39 log2
[5]
  Modulation (ratio of the level of intensity of expression in log2 in two stages of differentiation) measured with the Agilent chips, D7 − D0: 1.39 log2
  Modulation (ratio of the level of intensity of expression in log2 at two stages of differentiation), FC − D7: −0.53 log2
  Modulation (ratio of the level of intensity of expression in log2 in two stages of differentiation) measured with the Agilent chips, FC − D7: −0.53 log2
  Modulation (ratio of the level of intensity of expression in log2 in two stages of differentiation) measured with the Agilent chips, WD − D0: 0.69 log2
  Modulation (ratio of the level of intensity of expression in log2 at two stages of differentiation), WD − FC: −0.18 log2
  Modulation (ratio of the level of intensity of expression in log2 in two stages of differentiation) measured with the Agilent chips, WD − FC: −0.18 log2
  Level of intensity of expression in log2 measured with the Agilent chips, D0: 8.08 log2
  Level of intensity of expression in log2 measured with the Agilent chips, D7: 9.47 log2
  Level of intensity of expression in log2 measured with the Agilent chips, FC: 8.94 log2
  Level of intensity of expression in log2 measured with the Agilent chips, WD: 8.77 log2

## hsa-miR-130a: human miRNA, SEQ ID No. 4 (CAGUGCAAUGUUAAAAGGGCAU; expressed or natural sequence; listed as Homo sapiens)
[3]
  Modulation of expression of the miRNAs in pyramidal cells (323(−)) relative to basal cells 323(+): −6.33
  Intensity of the level of expression in log2 in basal cells (323(+)): 9.76 log2
  Intensity of the level of expression in log2 in pyramidal cells (323(−)): 3.43 log2
[3]; sorted ciliated/pyramidal versus basal cells
  cell type in which the miRNA is specifically expressed: more specific to the basal cells
[4]
  Modulation (ratio of the level of intensity of expression in log2 in two stages of differentiation) measured by high-throughput sequencing, D7 − D0: −1.40 log2
  Modulation (ratio of the level of intensity of expression in log2 in two stages of differentiation) measured by high-throughput sequencing, FC − D7: 0.19 log2
  Modulation (ratio of the level of intensity of expression in log2 in two stages of differentiation) measured by high-throughput sequencing, WD − D0: −1.94 log2
  Modulation (ratio of the level of intensity of expression in log2 in two stages of differentiation) measured by high-throughput sequencing, WD − FC: −0.73 log2
  Level of intensity of expression in log2 At the differentiated stage (WD) measured in HTS: 11.98 log2
  Level of intensity of expression in log2 measured by high-throughput sequencing, D0: 13.91 log2
  Level of intensity of expression in log2 measured by high-throughput sequencing, D7: 12.51 log2
  Level of intensity of expression in log2 measured by high-throughput sequencing, FC: 12.71 log2
  Level of intensity of expression in log2 measured by high-throughput sequencing, WD: 11.98 log2
[4]; HTS
  Modulation (ratio of the level of intensity of expression in log2 in two stages of differentiation), D7 − D0: −1.40 log2
  Modulation (ratio of the level of intensity of expression in log2 in two stages of differentiation), FC − D7: 0.19 log2
  Modulation (ratio of the level of intensity of expression in log2 in two stages of differentiation), WD − FC: −0.73 log2
[4]; HTS, ALI-D0
  Abundance (%), D0: 3.38%
[4]; HTS, ALI-D7
  Abundance (%), D7: 1.28%
[4]; HTS, ALI-FC
  Abundance (%), FC: 1.42%
[4]; HTS, ALI-WD
  Abundance (%), WD: 0.65%
[5]
  Modulation (ratio of the level of intensity of expression in log2 in two stages of differentiation) measured with the Agilent chips, D7 − D0: 0.65 log2
  Modulation (ratio of the level of intensity of expression in log2 at two stages of differentiation), FC − D7: −1.53 log2
  Modulation (ratio of the level of intensity of expression in log2 in two stages of differentiation) measured with the Agilent chips, FC − D7: −1.53 log2
  Modulation (ratio of the level of intensity of expression in log2 in two stages of differentiation) measured with the Agilent chips, WD − D0: −1.31 log2
  Modulation (ratio of the level of intensity of expression in log2 at two stages of differentiation), WD − FC: −0.43 log2
  Modulation (ratio of the level of intensity of expression in log2 in two stages of differentiation) measured with the Agilent chips, WD − FC: −0.43 log2
  Level of intensity of expression in log2 measured with the Agilent chips, D0: 8.83 log2
  Level of intensity of expression in log2 measured with the Agilent chips, D7: 9.48 log2
  Level of intensity of expression in log2 measured with the Agilent chips, FC: 7.95 log2
  Level of intensity of expression in log2 measured with the Agilent chips, WD: 7.52 log2
